Reference: PubChem BioAssay AID248 (DTP/NCI, 2004)
Several values for one entry are separate records, joined by “and”; a condition that tells them apart may be missing. Equal values may be shown once. Inconclusive results and toxic doses are left out. Rule as the data show it: active = T/C of 150% or more; inactive = T/C below 125%.

Test system: L1210 leukemia ip in BDF1 mice, survival T/C
Assay: NCI In Vivo Anticancer Drug Screen. Data for tumor model L1210 Leukemia (intraperitoneal) in B6D2F1 (BDF1) mice
Settings: endpoint: mean survival time, higher = longer survival
In short: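 Ratio derived from survival: compound-dosed mice over vehicle-dosed mice, all bearing a transplantable tumor.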

[1] = dose: 10.0 mg/kg/injection, schedule: Q01DX001 (ip), vehicle: saline
[2] = dose: 100.0 mg/kg/injection, schedule: Q01DX001 (ip), vehicle: saline
[3] = dose: 100.0 mg/kg/injection, schedule: Q04DX002 (ip), vehicle: Klucel (hydroxypropylcellulose) (HPC)
[4] = dose: 200.0 mg/kg/injection, schedule: Q04DX002 (ip), vehicle: Klucel (hydroxypropylcellulose) (HPC)

Measured: T/C

OCCCCC(O)c1ccccc1 (centres undefined)
inactive: dose: 100.0 mg/kg/injection, schedule: Q01DX009 (ip), vehicle: saline 107 % of control | dose: 100.0 mg/kg/injection, schedule: Q04DX003 (ip), vehicle: saline 116 % of control | dose: 200.0 mg/kg/injection, schedule: Q01DX009 (ip), vehicle: saline 96 % of control | dose: 200.0 mg/kg/injection, schedule: Q04DX003 (ip), vehicle: saline 107 % of control | dose: 400.0 mg/kg/injection, schedule: Q01DX009 (ip), vehicle: saline 100 % of control | dose: 400.0 mg/kg/injection, schedule: Q04DX003 (ip), vehicle: saline 112 % of control

CN1C=c2c3c(ccc2=C2C=CC4C=C5OCOC5=CC4=C21)OCO3 (centres undefined)
inactive: dose: 2.0 mg/kg/injection, schedule: Q01DX015 (ip), vehicle: saline 97 % of control | dose: 4.0 mg/kg/injection, schedule: Q01DX015 (ip), vehicle: saline 91 % of control | dose: 5.0 mg/kg/injection, schedule: Q01DX001 (ip), vehicle: saline 96 % of control | dose: 6.25 mg/kg/injection, schedule: Q04DX003 (ip), vehicle: saline 92 % of control | dose: 7.5 mg/kg/injection, schedule: Q01DX009 (ip), vehicle: saline 97 % of control | dose: 8.0 mg/kg/injection, schedule: Q01DX015 (ip), vehicle: saline 92 % of control | [1] 96 % of control | dose: 12.5 mg/kg/injection, schedule: Q04DX003 (ip), vehicle: saline 88 % of control | dose: 15.0 mg/kg/injection, schedule: Q01DX009 (ip), vehicle: saline 100 % of control | dose: 16.0 mg/kg/injection, schedule: Q01DX015 (ip), vehicle: saline 100 % of control | dose: 20.0 mg/kg/injection, schedule: Q01DX001 (ip), vehicle: saline 94 % of control | dose: 25.0 mg/kg/injection, schedule: Q04DX003 (ip), vehicle: saline 95 % of control and 90 % of control | dose: 30.0 mg/kg/injection, schedule: Q01DX009 (ip), vehicle: saline 102 % of control

O=C(CBr)c1cccc2c1ccc1ccccc12
inactive: dose: 1.56 mg/kg/injection, schedule: Q01DX009 (ip), vehicle: other 100 % of control | dose: 3.13 mg/kg/injection, schedule: Q01DX009 (ip), vehicle: other 95 % of control | dose: 6.25 mg/kg/injection, schedule: Q01DX009 (ip), vehicle: other 95 % of control and 98 % of control | dose: 12.5 mg/kg/injection, schedule: Q01DX005 (ip), vehicle: other 101 % of control | dose: 12.5 mg/kg/injection, schedule: Q04DX002 (ip), vehicle: other 102 % of control | dose: 25.0 mg/kg/injection, schedule: Q01DX005 (ip), vehicle: other 104 % of control | dose: 25.0 mg/kg/injection, schedule: Q04DX002 (ip), vehicle: other 91 % of control | dose: 50.0 mg/kg/injection, schedule: Q04DX002 (ip), vehicle: other 102 % of control

O=Cc1ccc2c(c1)c1ccccc1n2C1OC(CO)C(O)C(O)C1O (centres undefined)
inactive: dose: 60.0 mg/kg/injection, schedule: Q04DX002 (ip), vehicle: DMSO 102 % of control | dose: 120.0 mg/kg/injection, schedule: Q04DX002 (ip), vehicle: DMSO 97 % of control

COC1=CC23CCNC(Cc4ccc(OC)c(O)c42)C3=CC1 (centres undefined)
inactive: [1] 101 % of control

O=C(CC(c1ccccc1)c1ccccc1)NS(=O)(=O)c1ccccc1
inactive: dose: 100.0 mg/kg/injection, schedule: Q04DX003 (ip), vehicle: Klucel (hydroxypropylcellulose) (HPC) 94 % of control | dose: 200.0 mg/kg/injection, schedule: Q04DX003 (ip), vehicle: Klucel (hydroxypropylcellulose) (HPC) 97 % of control | dose: 400.0 mg/kg/injection, schedule: Q04DX003 (ip), vehicle: Klucel (hydroxypropylcellulose) (HPC) 97 % of control

CC(C)(C)CC(=O)CC(C)(C)C
inactive: [2] 98 % of control | dose: 200.0 mg/kg/injection, schedule: Q01DX001 (ip), vehicle: saline 87 % of control | dose: 400.0 mg/kg/injection, schedule: Q01DX001 (ip), vehicle: saline 98 % of control

O=C(O)COc1ccc(OS(=O)(=O)c2ccccc2)cc1
inactive: [3] 103 % of control | [4] 111 % of control | dose: 400.0 mg/kg/injection, schedule: Q04DX002 (ip), vehicle: Klucel (hydroxypropylcellulose) (HPC) 103 % of control

O=C(O)/C(Br)=C\c1ccc(Br)o1
inactive: dose: 50.0 mg/kg/injection, schedule: Q01DX009 (ip), vehicle: Klucel (hydroxypropylcellulose) (HPC) 97 % of control | dose: 100.0 mg/kg/injection, schedule: Q01DX009 (ip), vehicle: Klucel (hydroxypropylcellulose) (HPC) 94 % of control | [3] 97 % of control | dose: 200.0 mg/kg/injection, schedule: Q01DX009 (ip), vehicle: Klucel (hydroxypropylcellulose) (HPC) 97 % of control | [4] 90 % of control

Cc1nc(N)nc(N)c1[N+](=O)[O-]
inactive: dose: 65.0 mg/kg/injection, schedule: Q01DX Z (oral), vehicle: methylcellulose (MC) 105 % of control | dose: 125.0 mg/kg/injection, schedule: Q01DX Z (oral), vehicle: methylcellulose (MC) 100 % of control | dose: 250.0 mg/kg/injection, schedule: Q01DX Z (oral), vehicle: methylcellulose (MC) 100 % of control

CC1(C)CC(N=Cc2ccccc2O)CC(C)(C)N1O
inactive: dose: 100.0 mg/kg/injection, schedule: Q04DX003 (ip), vehicle: saline with Tween-80 94 % of control | dose: 200.0 mg/kg/injection, schedule: Q04DX003 (ip), vehicle: saline with Tween-80 97 % of control | dose: 400.0 mg/kg/injection, schedule: Q04DX003 (ip), vehicle: saline with Tween-80 100 % of control

C/C(=N/N=C(N)N)c1ccc(/C(C)=N/N=C(N)N)cc1
inactive: dose: 3.75 mg/kg/injection, schedule: Q01DX Z (ip), vehicle: saline 95 % of control | dose: 7.5 mg/kg/injection, schedule: Q01DX Z (ip), vehicle: carboxymethylcellulose (CMC) 100 % of control | dose: 7.5 mg/kg/injection, schedule: Q01DX Z (ip), vehicle: saline 101 % of control | dose: 15.0 mg/kg/injection, schedule: Q01DX Z (ip), vehicle: carboxymethylcellulose (CMC) 107 % of control | dose: 15.0 mg/kg/injection, schedule: Q01DX Z (ip), vehicle: saline 110 % of control and 112 % of control | dose: 30.0 mg/kg/injection, schedule: Q01DX Z (ip), vehicle: carboxymethylcellulose (CMC) 117 % of control | dose: 30.0 mg/kg/injection, schedule: Q01DX Z (ip), vehicle: saline 112 % of control | dose: 480.0 mg/kg/injection, schedule: Q01DX009 (oral), vehicle: saline 93 % of control | dose: 960.0 mg/kg/injection, schedule: Q01DX009 (oral), vehicle: saline 93 % of control

c1ccc(CSn2cnc3nc4ccccc4c-3c2)cc1
inactive: dose: 100.0 mg/kg/injection, schedule: Q04DX003 (ip), vehicle: gum acacia 91 % of control | dose: 200.0 mg/kg/injection, schedule: Q04DX003 (ip), vehicle: gum acacia 91 % of control | dose: 400.0 mg/kg/injection, schedule: Q04DX003 (ip), vehicle: gum acacia 91 % of control

CCCN=Cc1ccccc1O.CCCN=Cc1ccccc1O.[Cu]
inactive: dose: 9.5 mg/kg/injection, schedule: Q01DX001 (ip), vehicle: other 94 % of control | dose: 19.0 mg/kg/injection, schedule: Q01DX001 (ip), vehicle: other 100 % of control | dose: 38.0 mg/kg/injection, schedule: Q01DX001 (ip), vehicle: other 97 % of control

CC1(C(=O)O)C2C3C=CC(C3)C21 (centres undefined)
inactive: dose: 100.0 mg/kg/injection, schedule: Q01DX001 (ip), vehicle: saline with Tween-80 97 % of control | dose: 200.0 mg/kg/injection, schedule: Q01DX001 (ip), vehicle: saline with Tween-80 93 % of control | dose: 400.0 mg/kg/injection, schedule: Q01DX001 (ip), vehicle: saline with Tween-80 92 % of control

CCCCNc1nc(N)nc(Nc2ccc(Br)cc2)c1N=O
inactive: dose: 100.0 mg/kg/injection, schedule: Q01DX001 (ip), vehicle: acetone 103 % of control | dose: 100.0 mg/kg/injection, schedule: Q04DX003 (ip), vehicle: acetone 93 % of control | dose: 200.0 mg/kg/injection, schedule: Q01DX001 (ip), vehicle: acetone 100 % of control | dose: 200.0 mg/kg/injection, schedule: Q04DX003 (ip), vehicle: acetone 94 % of control | dose: 400.0 mg/kg/injection, schedule: Q01DX001 (ip), vehicle: acetone 106 % of control | dose: 400.0 mg/kg/injection, schedule: Q04DX003 (ip), vehicle: acetone 100 % of control

CCC(C)N(C(C)=O)C(C)CC (centres undefined)
inactive: dose: 25.0 mg/kg/injection, schedule: Q01DX001 (ip), vehicle: saline 107 % of control | dose: 50.0 mg/kg/injection, schedule: Q01DX001 (ip), vehicle: saline 97 % of control | [2] 100 % of control

COc1c2c(cc3c1OCO3)[C@@]13CCN(C2)[C@@H]1CC=C[C@H]3O
inactive: dose: 5.0 mg/kg/injection, schedule: Q01DX001 (ip), vehicle: carboxymethylcellulose (CMC) 105 % of control | dose: 10.0 mg/kg/injection, schedule: Q01DX001 (ip), vehicle: carboxymethylcellulose (CMC) 105 % of control
